Laboratory results published in US20220281848A1, “PYRAZOLE-SUBSTITUTED PYRROLIDINONES AS HERBICIDES” (FMC Corporation, priority 2019, published 2022).

Tests used:
Assay type in all cases: in vivo
Details in all cases: 19 to 21 days
[1] = system: velvetleaf (Abutilon theophrasti); experiment: Test C preemergence, velvetleaf
From the text: (§1) Seeds of plant species selected from corn (Zea mays), soybean (Glycine max), velvetleaf (Abutilon theophrasti), palmer pigweed (Amaranthus palmeri), waterhemp (common waterhemp, Amaranthus rudis), surinam grass (Brachiaria decumbens), large (Lg) crabgrass (Digitaria sanguinalis), fall panicum (Panicum dichotomiflorum), giant foxtail (Setaria faberi), ragweed (common ragweed, Ambrosia elatior), barnyardgrass (Echinochloa crus-galli), E. Black Nightshade (Solanum ptycanthum), and horseweed (Conyza canadensis), were planted into a silt loam soil and treated preemergence with test chemicals formulated in a non-phytotoxic solvent mixture which included a surfactant.
(§2) Treated plants and controls were maintained in a greenhouse for 19 to 21 days, after which time all species were compared to controls and visually evaluated. Plant response ratings, summarized in Table C, are based on a scale of 0 to 100 where 0 is no effect and 100 is complete control.

[2] = system: waterhemp (common waterhemp, Amaranthus rudis); experiment: Test C preemergence, waterhemp
From the text: as §1, §2

[3] = system: giant foxtail (Setaria faberi); experiment: Test C preemergence, giant foxtail
From the text: as §1, §2

[4] = system: ragweed (common ragweed, Ambrosia elatior); experiment: Test C preemergence, ragweed
From the text: as §1, §2

[5] = system: corn (Zea mays); experiment: Test C preemergence, corn
From the text: as §1, §2

[6] = system: surinam grass (Brachiaria decumbens); experiment: Test C preemergence, surinam grass
From the text: as §1, §2

Compound: CN1C[C@H](c2cc(C(F)(F)F)n(C)n2)[C@@H](C(=O)Nc2cccc(F)c2F)C1=O [Compound 13, (3S,4R)—N-(2,3-difluorophenyl)-1-methyl-4-[1-methyl-5-(trifluoromethyl)-1H-pyrazol-3-yl]-2-oxo-3-pyrrolidinecarboxamide]
- Plant response rating (0 no effect, 100 complete control) Velvetleaf ([1]; 4 g ai/ha Preemergence): 0
- Plant response rating (0 no effect, 100 complete control) Velvetleaf ([1]; 8 g ai/ha Preemergence): 0
- Plant response rating (0 no effect, 100 complete control) Velvetleaf ([1]; 16 g ai/ha Preemergence): 0
- Plant response rating (0 no effect, 100 complete control) Velvetleaf ([1]; 31 g ai/ha Preemergence): 0
- Plant response rating (0 no effect, 100 complete control) Velvetleaf ([1]; 62 g ai/ha Preemergence): 0
- Plant response rating (0 no effect, 100 complete control) Velvetleaf ([1]; 125 g ai/ha Preemergence): 0
- Plant response rating (0 no effect, 100 complete control) Waterhemp ([2]; 4 g ai/ha Preemergence): 0
- Plant response rating (0 no effect, 100 complete control) Waterhemp ([2]; 8 g ai/ha Preemergence): 0
- Plant response rating (0 no effect, 100 complete control) Waterhemp ([2]; 16 g ai/ha Preemergence): 0
- Plant response rating (0 no effect, 100 complete control) Waterhemp ([2]; 31 g ai/ha Preemergence): 0
- Plant response rating (0 no effect, 100 complete control) Waterhemp ([2]; 62 g ai/ha Preemergence): 20
- Plant response rating (0 no effect, 100 complete control) Waterhemp ([2]; 125 g ai/ha Preemergence): 20
- Plant response rating (0 no effect, 100 complete control) Foxtail, Giant ([3]; 4 g ai/ha Preemergence): 0
- Plant response rating (0 no effect, 100 complete control) Foxtail, Giant ([3]; 8 g ai/ha Preemergence): 55
- Plant response rating (0 no effect, 100 complete control) Foxtail, Giant ([3]; 16 g ai/ha Preemergence): 73
- Plant response rating (0 no effect, 100 complete control) Foxtail, Giant ([3]; 31 g ai/ha Preemergence): 88
- Plant response rating (0 no effect, 100 complete control) Foxtail, Giant ([3]; 62 g ai/ha Preemergence): 95
- Plant response rating (0 no effect, 100 complete control) Foxtail, Giant ([3]; 125 g ai/ha Preemergence): 95
- Plant response rating (0 no effect, 100 complete control) Ragweed ([4]; 4 g ai/ha Preemergence): 0
- Plant response rating (0 no effect, 100 complete control) Ragweed ([4]; 8 g ai/ha Preemergence): 0
- Plant response rating (0 no effect, 100 complete control) Ragweed ([4]; 16 g ai/ha Preemergence): 0
- Plant response rating (0 no effect, 100 complete control) Ragweed ([4]; 31 g ai/ha Preemergence): 0
- Plant response rating (0 no effect, 100 complete control) Ragweed ([4]; 62 g ai/ha Preemergence): 0
- Plant response rating (0 no effect, 100 complete control) Ragweed ([4]; 125 g ai/ha Preemergence): 0
- Plant response rating (0 no effect, 100 complete control) Corn ([5]; 4 g ai/ha Preemergence): 0
- Plant response rating (0 no effect, 100 complete control) Corn ([5]; 8 g ai/ha Preemergence): 0
- Plant response rating (0 no effect, 100 complete control) Corn ([5]; 16 g ai/ha Preemergence): 0
- Plant response rating (0 no effect, 100 complete control) Corn ([5]; 31 g ai/ha Preemergence): 0
- Plant response rating (0 no effect, 100 complete control) Corn ([5]; 62 g ai/ha Preemergence): 0
- Plant response rating (0 no effect, 100 complete control) Corn ([5]; 125 g ai/ha Preemergence): 15
- Plant response rating (0 no effect, 100 complete control) Surinam Grass ([6]; 4 g ai/ha Preemergence): 30
- Plant response rating (0 no effect, 100 complete control) Surinam Grass ([6]; 8 g ai/ha Preemergence): 30
- Plant response rating (0 no effect, 100 complete control) Surinam Grass ([6]; 16 g ai/ha Preemergence): 58
- Plant response rating (0 no effect, 100 complete control) Surinam Grass ([6]; 31 g ai/ha Preemergence): 90
- Plant response rating (0 no effect, 100 complete control) Surinam Grass ([6]; 62 g ai/ha Preemergence): 89
- Plant response rating (0 no effect, 100 complete control) Surinam Grass ([6]; 125 g ai/ha Preemergence): 99
